Columns and labels:
Type in all cases: cell-based, human
[1] = system: SiHa cells; test: Sensitization of SiHa cells to doxorubicin (MTT); conditions: 100 μM myricetin or 50 μM spinacine 4 h prior to doxorubicin, versus negative control
Description: (§1) Figure 3 (a) HPV^+ SiHa cells are resistant to TRAIL-induced apoptosis as compared with the human osteosarcoma cell line U2OS. Cells (2 × 10^4 cells per well) were seeded into a 96-well plate, allowed to incubate overnight, and then treated with the indicated concentration of TRAIL in the presence of cycloheximide (5 μg/ml). The viability of cells was measured after overnight incubation using the MTT assay; the viability of cells untreated with TRAIL was set at 100% for each group. (b) The indicated concentrations of three small molecules were added to SiHa cells, and an MTT assay was preformed after overnight incubation. The viability of cells untreated with small molecules was set as 100%. (c) The indicated concentrations of myricetin or spinacine were added 4 h prior to TRAIL (100 ng/ml) in the presence of cycloheximide (5 μg/ml) and incubated at 37 °C overnight. […] Cell viability was measured after overnight incubation using the MTT assay, and the viability of cells untreated with either myricetin or spinacine was set at 100%. […]
(§2) The extracellular domain of human TRAIL was cloned into a pTriEx expression plasmid containing N-terminal Hisx6 tag. […] All experiments were repeated at least three times (three biological replicates, carried out on different days), with each experimental group measured in triplicate within each of these individual experiments. […]

[2] = system: SiHa cells; test: TRAIL-induced apoptosis in SiHa cells (MTT); conditions: for viability at 125 µM / EC50: Homo sapiens; for viability at 125 µM: SiHa, 125 μM compound, TRAIL 100 ng/ml + cycloheximide 5 μg/ml, cells without small molecule = 100%, read-out: viability of SiHa cells in the presence of TRAIL; for EC50 / increase in cell death in the presence versus absence of TRAIL: SiHa cells; for EC50: compound 4 h prior to TRAIL 100 ng/ml + cycloheximide 5 μg/ml, overnight, MTT; for increase in cell death in the presence versus absence of TRAIL: from the EC50 values of Table 2
Description: Figure 3 (a) HPV^+ SiHa cells are resistant to TRAIL-induced apoptosis as compared with the human osteosarcoma cell line U2OS. Cells (2 × 10^4 cells per well) were seeded into a 96-well plate, allowed to incubate overnight, and then treated with the indicated concentration of TRAIL in the presence of cycloheximide (5 μg/ml). The viability of cells was measured after overnight incubation using the MTT assay; the viability of cells untreated with TRAIL was set at 100% for each group. (b) The indicated concentrations of three small molecules were added to SiHa cells, and an MTT assay was preformed after overnight incubation. The viability of cells untreated with small molecules was set as 100%. (c) The indicated concentrations of myricetin or spinacine were added 4 h prior to TRAIL (100 ng/ml) in the presence of cycloheximide (5 μg/ml) and incubated at 37 °C overnight. The viability of cells untreated with small molecules was set at 100%. (d and e) SiHa cells (2 × 10^4 cells per well) were seeded into a 96-well plate and allowed to incubate overnight. In all, 100 μM of myricetin and 50 μM of spinacine were added 4 h prior to either (d) doxorubicin or (e) cisplatin. Cell viability was measured after overnight incubation using the MTT assay, and the viability of cells untreated with either myricetin or spinacine was set at 100%. Experiments were performed in triplicate, and error bars indicate the S.D.
Figure 5 Myricetin and spinacine (5) can re-sensitize HPV^+, but not HPV^−, cells to treatment with TRAIL. SiHa (2 × 10^4 cells per well) and C33A cells (1 × 10^4 cells per well) were seeded into a 96-well plate and allowed to incubate overnight, and then cells were pretreated in the presence or absence of (a) myricetin (100 μM) or (b) spinacine (50 μM) for 4 h. The indicated concentration of TRAIL along with cycloheximide (5 μg/ml) was added, and the cells were allowed to incubate overnight. Cell viability was measured by MTT assay, and the viability of cells untreated with TRAIL was set at 100%. Experiments were performed in triplicate, and error bars indicate the S.D.
The extracellular domain of human TRAIL was cloned into a pTriEx expression plasmid containing N-terminal Hisx6 tag. His-TRAIL was expressed in the E. coli BL-21 pLys strain and purified as previously described. Doxorubicin and cisplatin were purchased from Sigma. His-TRAIL, doxorubicin, and cisplatin were diluted in PBS to the desired concentration before using. To measure cell survival following treatment with TRAIL, cisplatin and doxorubicin, SiHa (2 × 10^4/well), C33A (1 × 10^4/well), and HNSCC cells (2 × 10^4/well) were seeded into 96-well plates and allowed to adhere overnight. Small molecules at the desired concentration were added and incubated at 37 °C for 4 h. As indicated, TRAIL, cisplatin, or doxorubicin was then added. The TRAIL treatment group contained cycloheximide (5 μg/ml) to inhibit de novo protein synthesis, and the cells were incubated for 16 h prior to measuring cell viability by the MTT assay preformed as described previously.[38] All experiments were repeated at least three times (three biological replicates, carried out on different days), with each experimental group measured in triplicate within each of these individual experiments. Data presented are from a representative experiment.

[3] = system: caspase 3/7; test: Caspase 3/7 activity assay in SiHa cells; conditions: 100 μM myricetin or 50 μM spinacine 4 h, then TRAIL 100 ng/ml + cycloheximide, 0–6 h, versus controls
Description: Figure 4 Myricetin and spinacine (5) increase caspase 3/7 activity in SiHa cells following treatment with TRAIL and chemotherapy drugs. SiHa cells (2 × 10^4 cells per well) were seeded into a 96-well plate and allowed to incubate overnight and then pretreated with 100 μM of myricetin or 50 μM of spinacine for 4 h. (a) TRAIL (100 ng/ml), along with cycloheximide (5 μg/ml), (b) cisplatin (50 μM), or (c) doxorubicin (2 μM) were added respectively. Caspase 3/7 activity was measured after 0, 1.5, 3, and 6 h using the CellTiter-Glo assay. Activity at 0 h of treatment was set at 100% for each group. Experiments were performed in triplicate, and error bars indicate the S.D.
Cells were plated into 96-well plates at a density of 2 × 10^4 cells per well and incubated overnight. Small molecules were then added and incubated at 37 °C for 4 h. TRAIL (100 ng/ml), cisplatin (50 μM), and doxorubicin (2 μM) were then added. […] Caspase 3/7 activity was measured using the flourogenic substrate CellTitier-Glo for caspase 3/7 activity (Promega, Fitchburg, WI, USA) following the manufacturer's instructions. […] After a 10-min incubation, the released fluorophore was measured using a plate-reading fluorimeter (Flx800, Bio-Tek Instrument Co., Winooski, VT, USA). […] The resulting difference was expressed as a percentage of the caspase activity of the untreated cells.

[4] = system: UMSCC29; test: TRAIL-induced cell death in HPV− HNSCC line UMSCC29 (MTT); conditions: HPV− #29, myricetin 0–200 μM or spinacine 0–100 μM, 50 ng/ml TRAIL
Description: (§3) Figure 7 Myricetin and spinacine (5) can re-sensitize HPV^+, but not HPV^−, head and neck cancer cell lines to treatment with TRAIL. (a) Both HPV^− and HPV^+ HN cancer cell lines display resistance to TRAIL treatment. (b) HPV^− (UMSCC 29 and SCC 84) and (c) HPV^+ (UMSCC 47, UPCI-SCC90-UP-Clone 35, and UM-SCC47-TC-Clone 3) head and neck cancer cell lines (2 × 10^4 cells per well) were seeded into 96-well plates and allowed to incubate overnight, and then cells were pretreated with myricetin (0–200 μM) or spinacine (0–100 μM) for 4 h. […] Cell viability was measured by the MTT assay, and the viability of cells untreated with small molecules was set at 100%. Experiments were performed in triplicate, and error bars indicate the S.D.
as §2, with “tag. His-TRAIL was expressed in the E. coli BL-21 pLys strain and purified as previously described. Doxorubicin and cisplatin were purchased from Sigma. His-TRAIL, doxorubicin, and cisplatin were diluted in PBS to the desired concentration before using.” for “tag.”

[5] = system: SiHa cells; test: Sensitization of SiHa cells to cisplatin (MTT); conditions: 100 μM myricetin or 50 μM spinacine 4 h prior to cisplatin, versus negative control
Description: as §1, §2

[6] = system: UM-SCC47-TC-Clone 3; test: TRAIL-induced cell death in HPV+ HNSCC line UM-SCC47-TC-Clone 3 (MTT); conditions: HPV+ 47CL3, 40 μM compound 4 h, 50 ng/ml TRAIL + cycloheximide
Description: as §3
as §2, with “tag. His-TRAIL was expressed in the E. coli BL-21 pLys strain and purified as previously described. Doxorubicin and cisplatin were purchased from Sigma. His-TRAIL, doxorubicin, and cisplatin were diluted in PBS to the desired concentration before using.” for “tag.”

Q: For `O=c1c(O)c(-c2cc(O)c(O)c(O)c2)oc2cc(O)cc(O)c12` [Myricetin, myricetin, reference compound], which “sensitivity of SiHa cells to doxorubicin” value [1] is on record?
A: increased the sensitivity

Q: And the “sensitivity of SiHa cells to TRAIL” value ([2]; 100 μM myricetin pretreatment 4 h, TRAIL up to 100 ng/ml + cycloheximide)?
A: increased dramatically

Q: And the viability at 125 µM [2]?
A: 30 to 40%

Q: What about the EC50 [2] of the same compound?
A: 155 µM

Q: What about the “increase in cell death in the presence versus absence of TRAIL” value [2] of the same compound?
A: 3.5 fold

Q: What about the “caspase 3/7 activity in combination with TRAIL” value [3] of the same compound?
A: increased

Q: And the “response to TRAIL in presence and absence of compound” value [4]?
A: resistant

Q: What about the “sensitivity of SiHa cells to cisplatin” value [5] of the same compound?
A: increased the sensitivity

Q: And the “enhancement of TRAIL-induced cell death” value [6]?
A: 70%

Q: For `O=C(O)C1Cc2[nH]cnc2CN1` (centres unmarked) [Spinacine (5), 4,5,6,7-tetrahydro-1H-imidazo[4,5–c]pyridine-6-carboxylic acid], which “sensitivity of SiHa cells to doxorubicin” value [1] is on record?
A: increased the sensitivity

Q: What about the viability at 125 µM [2] of the same compound?
A: 30 to 40%

Q: And the EC50 [2]?
A: 31.3 µM

Q: What about the “increase in cell death in the presence versus absence of TRAIL” value [2] of the same compound?
A: 8.6 fold

Q: And the “caspase 3/7 activity in combination with TRAIL” value [3]?
A: increased

Q: What about the “response to TRAIL in presence and absence of compound” value [4] of the same compound?
A: resistant

Q: What about the “sensitivity of SiHa cells to cisplatin” value [5] of the same compound?
A: increased the sensitivity

Q: And the “enhancement of TRAIL-induced cell death” value [6]?
A: ~60%

— article PMC5154303, “Flavonol and imidazole derivatives block HPV16 E6 activities and reactivate apoptotic pathways in HPV^+ cells” (Cell Death & Disease, 2016)
